The source of these data is patent publication US20140294994A1, “PHARMACEUTICAL COMPOSITION FOR ELIMINATION OF CANCER STEM CELLS” (priority 2011, published 2014).

The subject of experiment [1] is CL141 cells. Nature of the experiment: Aldefluor assay (ALDH-positive cells). The experiment is classed as cell-based, human. On the procedure: (§1) High aldehyde dehydrogenase (ALDH) enzyme activity was used to detect lung CSC populations in this study. The Aldefluor assay was performed according to the manufacturer's guidelines (StemCell Technologies). Briefly, single cells obtained from cell cultures were incubated in an Aldefluor assay buffer containing an ALDH substrate (bodipy-aminoacetaldehyde, BAAA) for 50 minutes at 37° C. As a negative control, a fraction of cells from each sample was incubated under identical conditions in the presence of an ALDH inhibitor (diethylaminobenzaldehyde, DEAB). Flow cytometry was used to measure the ALDH-positive cell population.

Experiment [2] concerns CL152 cells. Nature of the experiment: Aldefluor assay (ALDH-positive cells). The experiment is classed as cell-based, human. The conditions noted are these: 5 μM, untreated 3.73%. How it is done: as §1
The subject of experiment [3] is CL141 spheroids. The experiment is described as follows: Western blotting and immunochemical staining of cancer spheroids. The experiment is classed as cell-based, human. As to conditions: CL141 spheroids, 0, 2.5, 5 and 10 μM, 48 hours. How it is done:
Cells were lysed in lysis buffer (50 mM Tris-HCl, pH 7.4, 5 mM MgCl2, 1% Nonidet P-40, 150 mM NaCl, 1 mM phenylmethylsulfonyl fluoride). Total protein was isolated and subjected to SDS polyacrylamide gel electrophoresis and electrotransfered onto PVDF membranes (Millipore). Primary antibodies Bax, Bak, Bcl-2, XIAP, Mcl-1, Cleaved Caspase 9, Caspase 3, […], c-Myc, CD44, cyclin D1 were obtained from Cell Signaling, Met was purchased from Santa Cruz and CD133 was from Miltenyi Biotec, and secondary antibodies for anti-mouse and anti-rabbit horseradish preoxidase (HRP)-conjugation were from Chemicon International. The protein detection was performed with enhanced chemiluminescence (ECL™) method captured by a Luminescence Imaging System (LAS-4000™, Fuji Photo Film Co., Ltd).
(In general: A western blot detects proteins with antibodies after separation by electrophoresis.)

In the next experiment the test system is A549 cells. Nature of the experiment: Clonogenic assay. It is filed as cell-based, human. As to conditions: Homo sapiens. How it is done: The NSCLC cancer cell lines, A549, H1975, CL25, CL83, CL97, CL141, and CL152 were maintained in RPMI medium. Tested cells were seeded respectively in 6 well plates with 10^4 cells per well for 14 days. Each well contained 10 ml RPMI medium as cultured condition for NSCLC cells. […] Trifluoperazine and other tested drugs were added 24 hours after seeding of the cells. The medium and trifluoperazine were changed once on day 4. After the treatments, cells were washed with PBS, and the colonies were fixed with fix solution (acetic acid:methanol=1:3) and stained with 0.5% crystal violet in methanol. After removing the crystal violet carefully and rinse with tap water, the colonies were counted manually.

Experiment [4] relates to CL141 spheroids. Nature of the experiment: Soft agar assay (colony formation). As to conditions: 12 days, control 92. The experiment is classed as cell-based, human. How it is done: Freshly sorted CL141 side population (SP) and non-side population (NSP) cells were counted and plated in triplicate at 200 cells per well in six-well plates coated with 1% agarose. Anchorage-independent growth was assessed after incubation for 10-14 days in culture media with or without trifluoperazine (0, 5 and 10 μM), which was replaced every 4 days. Plates were stained with 0.005% crystal violet, and the colonies were counted manually under a microscope and photographed.

In experiment [5] the test system is CL141 cells. Nature of the experiment: Side population analysis (Hoechst 33342, flow cytometry). The experiment is classed as cell-based, human. On the procedure: (§2) Single-cell suspensions of cells were detached from dishes with Trypsin-EDTA (Invitrogen) and suspended at 1×10^6 cells/mL in Hank's balanced salt solution (HBSS) supplemented with 3% fetal calf serum and 10 mM Hepes. […] After 90 minutes incubation, the cells were centrifuged immediately for 5 minutes at 300 g and 4° C. and resuspended in ice-cold HBSS. The cells were kept on ice to inhibit efflux of the Hoechst dye, and 1 μg/mL propidium iodide (BD) was added to discriminate dead cells. Finally, these cells were filtered through a 40 μm cell strainer (BD) to obtain single-suspension cells. Cell dual-wavelength analysis and purification were performed on a dual-laser FACS Vantage SE (BD). […] A 610 nm dichroic mirror short-pass (DMSP) was used to separate the emission wavelengths. PI-positive (dead) cells were excluded from the analysis.
(In general: Flow cytometry measures light scatter and fluorescence of single cells or particles in a stream.)

Experiment [6] concerns CL97 cells. The description is as above. The experiment is classed as cell-based, human. As to conditions: 5 μM, untreated 1.9%. How it is done: as §2
Experiment [7] deals with CL83 cells. The description is as above. It is filed as cell-based, human. As to conditions: 5 μM, untreated 1.54%. On the procedure: as §2
The test system of the next experiment is H1975 cells. Nature of the experiment: MTT assay (cell viability). As to conditions: Homo sapiens, NCI-H1975; H1975 cell line, 48 hour incubation; read-out: IC50 for trifluoperazine. The experiment is classed as cell-based. An excerpt: (§3) In addition to the commonly used cell lines (A549 and H1975), we also established several cell lines including CL83, CL141, CL152, CL25, and CL97 cell lines which were isolated from the pleural effusion of NSCLC patients at the National Taiwan University Hospital. The investigation was approved by the Institutional Review Board of the National Taiwan University Hospital. Informed consent was obtained before pleural effusion was collected.
A general note: Tetrazolium dyes change colour on reduction, which living cells bring about.

For experiment [8], the system named is CL141 cells. The experiment is described as follows: MTT assay (cell viability). The experiment is classed as cell-based. As to conditions: Homo sapiens; CL141 cell line, 48 hour incubation; read-out: IC50 for trifluoperazine.
Source text: as §3

For experiment [9], the system named is CL97 cells. Nature of the experiment: MTT assay (cell viability). The experiment is classed as cell-based. The conditions noted are these: Homo sapiens; CL97 cell line, 48 hour incubation; read-out: IC50 for trifluoperazine.
Source text: as §3

The test system of experiment [10] is CL83 cells. The experiment is described as follows: MTT assay (cell viability). It is filed as cell-based. As to conditions: Homo sapiens; CL83 cell line, 48 hour incubation; read-out: IC50 for trifluoperazine.
Source text: as §3

For experiment [11], the system named is CL152 cells. The experiment is described as follows: MTT assay (cell viability). As to conditions: Homo sapiens; CL152 cell line, 48 hour incubation; read-out: IC50 for trifluoperazine. It is filed as cell-based.
Source text: as §3

The subject of the next experiment is CL25 cells. Nature of the experiment: MTT assay (cell viability). As to conditions: Homo sapiens; CL25 cell line, 48 hour incubation; read-out: IC50 for trifluoperazine. It is filed as cell-based.
Source text: as §3

The test system of the next experiment is CL97-L2G spheroids. Nature of the experiment: Prevention experiment, pretreated spheroids orthotopically injected into lung. The experiment is classed as in vivo, NOD/SCID mice. The conditions noted are these: cells pre-treated with 5 μM overnight, versus vehicle-treated control. How it is done: . […] CL97-L2G-bearing mice (both bulk lung tumor and CSC models) were imaged weekly using the IVIS 200 system (Caliper Life Sciences). Data are expressed as fold change in total photon flux/initial total photon flux and were analyzed using Living Image 1.0 software (Caliper Life Sciences). Mice were humanely sacrificed at the end of experiments and lung tumor biopsies were obtained for further analysis.

Entries after “also recorded” stand apart in the source; their conditions may differ.

Consider `CN1CCN(CCCN2c3ccccc3Sc3ccc(C(F)(F)F)cc32)CC1` [Trifluoperazine], for which the “ALDH-positive cell population after treatment” value in the experiment on CL141 cells [1] (CL141 cells, 5 μM, untreated 4.31%) is 0.84%; in the experiment on CL152 cells [2], 1.08%. Also, the “percentage of ALDH+ CL141 cells” value with CL141 cells [1] (trifluoperazine 10 μM alone or combined with 5 μM gefitinib) is reported as “moderately decreased”. Besides, the “CD44 and CD133 expression” value with CL141 spheroids [3] was “dose-dependently down-regulated”. Besides, the concentration for half-maximal inhibition (IC50) (commonly the midpoint of a concentration-inhibition curve) in the experiment with A549 cells is 1.25 to 2.5 µM; in the experiment on H1975 cells it was 15 µM; in the experiment with CL141 cells [8] it was 8.5 µM; in the experiment on CL97 cells [9], 7.2 µM; in the experiment on CL83 cells [10], 14 µM; in the experiment on CL152 cells [11], 12 µM. Besides, the concentration for half-maximal inhibition (IC50) with CL25 cells worked out at 13 µM. In addition, the “mean colony number on soft agar” value with CL141 spheroids [4] (5 μM) is 32; in the experiment with CL141 spheroids [4] (10 μM) it was 8. Also, the Reduced side population result in the experiment with CL141 cells [5] is given as “Yes”. The “percentage of side population cells after treatment” value in the experiment with CL97 cells [6] and with CL83 cells [7] was “significantly decreased” each time. The “in-situ tumor growth (fold change in BLI)” value with CL97-L2G spheroids is “significantly delayed and suppressed; also recorded: delayed and significantly reduced in-situ tumor growth”.
